The record followed here is patent US20220062233A1 (The Board of Trustees of the Leland Stanford Junior …, priority 2018, published 2022).

Data set [1] in a line: In vivo pharmacokinetics and brain penetration, single dose, mouse. The conditions noted are these: for clearance / half-life / Vd / Cmax: C57BL6, blood; for clearance / half-life / Vd: intravenous, 0.5 mg/kg; for clearance / half-life / Vd / Cmax / Kp / Fabs (%): Mouse; for clearance / half-life / Vd / Cmax / Kp: single dose; for half-life: read-out: Elimination Half-life (converted); for Vd: read-out: Vdss; for Cmax: oral, 5 mg/kg, read-out: Cmax (maximum concentration in blood or plasma); for Kp: C57BL6, brain / blood, averaged over collection time points, read-out: BB_Ratios (brain-to-blood concentration ratio); for Fabs (%): single dose IV/PO. Here is the method: (§1) B. In Vivo Pharmacokinetics and Brain Penetration
(§2) The pharmacokinetic assessment was carried out in rodents (e.g. Sprague-Dawley rats or C57BL6 mice) after a single dose administration by IV (e.g., 0.5 mg/kg) or PO (e.g., 5 mg/kg). Biological samples were collected at pre-determined time points, batch-processed, and the test articles were extracted and quantified with LC-MS, utilizing internal standards and separately prepared calibration curves. Blood (or plasma) concentration to time profiles were acquired for compounds and a selected list is presented in Table 6 with the non-compartmental PK parameters (e.g., peak concentration in circulation (Cmax), absolute bioavailability (Fabs), elimination half-life, clearance (CL), and volume of distribution at steady state (Vdss)). Upon terminal collection, the brains were also collected and homogenized in an extraction buffer, followed by quantification with LC-MS. After brain concentration levels (ng/g of brain tissue) were determined, the mean ratios of the brain-to-blood (BB) concentration (or brain-to-plasma concentration) at various collection time points were averaged, then shown in Table 6 as BB Ratio to indicate the extent of brain penetration.
FIG. 1A is a graph showing in vitro mouse hepatocyte stability on compound #2 (closed circle) and compound #42 (open circle). FIG. 1B is a graph showing blood concentration-time profile of mouse (N=3 per group) after IV administration of 0.5 mg/kg of compound #2 (closed circle) or #42 (open circle), or PO administration of 5 mg/kg of compound #2 (closed triangle) or #42 (open triangle).

The test system of data set [2] is Huntington's disease patient iPSCs (ND50036). The data set is described as follows: iPSC viability at IC20. Type of data set: cell-based, human. The conditions noted are these: at the concentration of IC20.
Another data set deals with mutant HTT. Briefly: Mutant HTT assay in induced pluripotent stem cells (iPSC). The conditions noted are these: HD patient iPSCs, one day incubation; class symbols; read-out: iPSC IC20 (nM) mHTT. It is filed as cell-based, human. In short, it runs like this: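 Huntington's disease patient iPSCs (ND50036) plated at 7,000 cells/well, compound-treated after 48 h for one day in mTeSR1. Lysates normalised by BCA protein, then mutant HTT measured by sandwich ELISA: anti-human HTT capture, biotinylated mutant-HTT-specific detection, streptavidin-HRP/TMB colorimetric readout, interpolated from a standard curve.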

Data set [3] deals with Gmr::HTT97Q fly (mutant HTT, rough eye). Briefly: HD-Drosophila phenotypic assay (rough eye analysis). The conditions noted are these: Gmr-HTT97Q flies, compound 10 μM in media. Type of data set: in vivo, Drosophila melanogaster. From the text:
D. Alleviation of Neuron Degeneration Phenotypes of Mutant HTT in Drosophila HD Models
The Drosophila melanogaster (fruit fly) HD models carry the coding sequence of human HTT exon1 with 97 CAG repeats to mimic mutant HTT of Huntington's disease (HD). The Gmr::HTT97Q fly, expressing mutant HTT primarily in the neurons of Drosophila compound eyes, has a severe degeneration of photoreceptor neurons and the phenotypic trait ‘rough eye’. All of the fly stocks and genetics crosses are maintained at 25° C. on standard cornmeal yeast agar media.
b. Eye Morphology (Rough Eye) Analysis
Fifteen adult male flies (Gmr-HTT97Q/Gmr-HTT97Q or Gmr/Gmr) are crossed with 15 virgin female flies W1118(+/+) in a vial containing standard yeast agar media with the compound in a concentration of 10 μM. Parent-flies are removed from vials at day 7, followed by a collection of newly hatched flies for ‘rough eye’ analysis. The morphology of compound eyes is captured using a Leica DMR upright microscope equipped with a digital camera (CoolSNAP 5.0, Photometrics). To increase the depth of field, imaging software is used to create montage composite images (Helicon Focus, HeliconSoft). A total of 10 flies are collected for analysis in each individual condition, and the biological experiment is conducted three times. DMSO, the reagent solvent of the compound, is included as a control.

A short description of data set [4]: In vivo pharmacokinetics and brain penetration, single dose, rat. Here is the method: as §1, §2
The mark [5] stands for this setting: mouse, PO 5 mg/kg, compound #42 versus #2.

One may read the clearance as the rate of elimination divided by the concentration. Read a low clearance as inefficient removal. By half-life is commonly meant the time needed for the level to fall by half in the phase considered. As a reminder, the IC20 is the concentration needed for an effect of 20%. As for `OCCOCc1ccc(CN[C@@H]2CCCc3c2[nH]c2ccc(Br)cc32)cc1` (single isomer, unassigned) [Compound 28], in data set [1], the clearance is 16.7 mL/min/kg, the half-life is 2.4 h, the Vd was 3.3 L/kg and the Cmax was > 300 nM. Moreover, in data set [1], the Kp was ≥ 1 and the “Fabs (%)” value was >70%. Further, the “iPSC viability at IC20” value in data set [2] is listed as “+ (cell viability is greater than 75% at the concentration of IC20)”. In addition, the IC20 with mutant HTT is < 100 nM.

As for `OCc1ccc(CNC2CCCc3c2[nH]c2ccc(Br)cc32)cc1` (centres unmarked) [Compound 1], the “HD-Drosophila Phenotypic assay (rescue of rough eye phenotype)” value in data set [3] is listed as “& (rough eye phenotype of HD flies is rescued by testing compound greater than 40%)”. Moreover, the Kp in data set [4] (Sprague-Dawley, brain / blood, single dose, averaged over collection time points, read-out: BB_Ratios (brain-to-blood concentration ratio)) was ≥ 1. This compound showed a clearance in data set [4] (Sprague-Dawley, in vivo, intravenous, single dose) of 85 mL/min/kg. The Vd in data set [4] (Sprague-Dawley, in vivo, intravenous, single dose, read-out: Vdss) worked out at 12 L/kg. Besides, the Cmax in data set [4] (Sprague-Dawley, in vivo, single dose, read-out: Cmax (maximum concentration in blood or plasma)) was in the range of 100 to 300 nM. The half-life in data set [4] (Sprague-Dawley, in vivo, single dose, read-out: Elimination Half-life (converted)) is 1.9 h. In addition, the “Fabs (%)” value in data set [4] (single dose IV/PO) was <30%.

`OCc1ccc(CN[C@@H]2CCCc3c2[nH]c2ccc(Br)cc32)cc1` [Compound 2, (R)-(4-(((6-bromo-2,3,4,9-tetrahydro-1H-carbazol-1-yl)amino)methyl)phenyl)methanol]: in data set [1], the clearance is 183 mL/min/kg, the half-life is 0.8 h, the Vd came to 11 L/kg and the Cmax is < 100 nM. For the same compound, in data set [1], the “Fabs (%)” value is <30%. In addition, in data set [3], the “HD-Drosophila Phenotypic assay (rescue of rough eye phenotype)” value was “& (rough eye phenotype of HD flies is rescued by testing compound greater than 40%)”. Moreover, the “iPSC viability at IC20” value in data set [2] is “+ (cell viability is greater than 75% at the concentration of IC20)”. Besides, the IC20 in the data set on mutant HTT was < 100 nM.

In the case of `CC(C)(O)c1ccc(CN[C@@H]2CCCc3c2[nH]c2ccc(Br)cc32)cc1` [Compound 31, (R)-2-(4-(((6-bromo-2,3,4,9-tetrahydro-1H-carbazol-1-yl)amino)methyl)phenyl)propan-2-ol], in data set [1], the clearance is 50 mL/min/kg, the half-life is 2.6 h, the Vd amounted to 9.1 L/kg and the Cmax lay within 100 to 300 nM. Besides, in data set [1], the Kp is ≥ 1 and the “Fabs (%)” value is on record as 30-70%. Also, the “iPSC viability at IC20” value in data set [2] is recorded as “+ (cell viability is greater than 75% at the concentration of IC20)”. Besides, the IC20 with mutant HTT was < 100 nM.

For `[2H]C([2H])(O)c1ccc(CN[C@@H]2CCCc3c2[nH]c2ccc(Br)cc32)cc1` [Compound 42, (R)-(4-(((6-bromo-2,3,4,9-tetrahydro-1H-carbazol-1-yl)amino)methyl)phenyl)methan-d2-ol], in data set [1], the clearance is 80 mL/min/kg, the half-life is 1.2 h, the Vd came out at 7.2 L/kg and the Cmax lay in the range of 100 to 300 nM. The “Fabs (%)” value in data set [1] is recorded as <30%. Further, the “elimination half-life (comparison)” value in data set [1] (mouse, IV 0.5 mg/kg, compound #42 versus #2, FIG. 1B) is reported as “longer”. Also, in data set [1] (setting [5]), the “Cmax (comparison)” value is “significantly increased” and the “Fabs (comparison)” value was “significantly increased”. Also, the “CL (comparison)” value in data set [1] (mouse, randomized cross-over after 48-hour washout, compound #42 versus #2) is given as “slower CL”. In data set [2], the “iPSC viability at IC20” value is recorded as “+ (cell viability is greater than 75% at the concentration of IC20)”. The IC20 in the data set with mutant HTT was < 100 nM.

With `CS(=N)(=O)c1ccc(CN[C@@H]2CCCc3c2[nH]c2ccc(Br)cc32)cc1` (stereo partly drawn) [Compound 49, (4-((((R)-6-bromo-2,3,4,9-tetrahydro-1H-carbazol-1-yl)amino)methyl)phenyl)(imino)(methyl)-λ^6-sulfanone], in data set [1], the clearance is 55 mL/min/kg, the half-life was 1.1 h, the Vd amounted to 5.1 L/kg and the Cmax is > 300 nM. Further, in data set [1], the Kp is ≥ 1 and the “Fabs (%)” value is recorded as <30%. Also, the “iPSC viability at IC20” value in data set [2] is given as “+ (cell viability is greater than 75% at the concentration of IC20)”. Moreover, in the data set on mutant HTT, the IC20 was < 100 nM.
